Assay results reported in patent US20110053773A1, “METHODS OF IMPROVING NUTRITIONAL VALUE OF PLANTS” (UNIVERSITY OF TENNESSEE RESEARCH FOUNDATION, priority 2009, published 2011).

What was measured:
[1] = system: 'Riviera' bermudagrass; assay: Leaf tissue pigment concentrations of bermudagrass after mesotrione (Example 5, Table 16); type: in vivo, Cynodon dactylon (L.) Pers.; conditions: for Blade tissue pigments: Beta-carotene / Blade tissue pigments: Lutein / Blade tissue pigments: Phytoene / Blade tissue pigments: Total Carotenoids / Blade tissue pigments: Violaxanthin / Blade tissue pigments: Zeaxanthin: 0.28 kg ai×ha^−1
From the text: (§1) Greenhouse and laboratory studies were initiated with ‘Riviera’ bermudagrass (Cynodon dactylon (L.) Pers.) treated postemergence with mesotrione at 0.28 kg×ha^−1 and sampled for tissue pigment concentrations at 0, 3, 7, 14, 21, 28 and 35 days after treatment (DAT; Table 16). […] Due to the antioxidant activity of these carotenoid pigments, these increases should improve bermudagrass stress tolerance (Kopsell et al., 2010).

[2] = system: 'Riviera' bermudagrass; assay: Visual tissue whitening of bermudagrass after mesotrione (Example 5); type: in vivo, Cynodon dactylon (L.) Pers.; conditions: 0.28 kg/ha postemergence
From the text: as §1

[3] = system: sweet corn (Zea mays var. rugosa) cultivar 'Incredible'; assay: Content analysis of sweet corn ears: crude protein, amino acids, detergent fiber, fatty acids, minerals (Example 1); type: in vivo; conditions: POST at b59 rates; every treatment incl. check also got atrazine 560 g ai/ha + COC 1% v/v; relative to treated check (atrazine), check=0
From the text: Herbicide treatments were applied in a water carrier at 23 gallons of solution per acre on a field site near Knoxville, Tenn. and Painter, Va. Treatments include the following: 1) nicosulfuron at 35 g ai/ha (Accent); 2) mesotrione at 105 g ai/ha (Callisto); 3) nicosulfuron at 35 g ai/ha+mesotrione at 105 g ai/ha (Callisto+Accent); 4) tembotrione at 92 g ai/ha+isoxadifen-ethyl at 46 g ai/ha (Laudis); 5) topramezone at 15 g ai/ha (Impact); 6) nicosulfuron at 35 g ai/ha+isoxadifen-ethyl at 9 g ai/ha (Accent Q); 7) nicosulfuron at 35 g ai/ha+isoxadifen-ethyl at 9 g ai/ha+topramezone at 15 g ai/ha (Accent Q+Impact); 8) nicosulfuron 35 g ai/ha+isoxadifen-ethyl at 9 g ai/ha+mesotrione at 105 g ai/ha (Accent Q+Callisto); 9) treated check (atrazine or Aatrex). All treatments included a PRE application of atrazine plus metolachlor in order to maintain weed free conditions. In addition, all POST treatments (including the treated check) included atrazine at 560 g ai/ha and crop oil concentrate at 1% v/v. […] Sweet corn was harvested from the center two rows of each four row plot and weighed in the husk.

[4] = system: sweet corn cultivars 'Merit', 'Temptation', 'Incredible'; assay: Visual leaf tissue bleaching of sweet corn (Example 3, Table 9); type: in vivo; conditions: mesotrione 105, atrazine 560 g ai/ha
Experimental: Studies were conducted in a field in Knoxville, Tenn. to ascertain the growth, stress tolerance and nutritional quality differences following postemergence applications of herbicides mesotrione and atrazine, alone and in mixtures together, on the young sweet corn cultivars: ‘Merit’ (yellow-kernel sensitive genotype), ‘Temptation’ (bicolor tolerant genotype), and ‘Incredible’ (yellow-kernel moderately sensitive genotype).
Herbicide treatments were applied as follows: 1) untreated control; 2) mesotrione (meso) at 105 g ai/ha EPOST; 3) mesotrione at 105+atrazine at 560 g ai/ha EPOST; 4) atrazine at 560 g ai/ha EPOST; 5) mesotrione at 105 g ai/ha LPOST; 6) mesotrione at 105+atrazine at 560 g ai/ha LPOST; and 7) atrazine at 560 g ai/ha LPOST. Visual ratings of plant growth were taken during season, and kernels for carotenoids were measured at harvest.

SMILES: CS(=O)(=O)c1ccc(C(=O)C2C(=O)CCCC2=O)c([N+](=O)[O-])c1 [Mesotrione*CALLISTO, mesotrione]
- Blade tissue pigments: Beta-carotene ([1]; 0 days after treatment): 17.2 mg/100 g fresh weight
- Blade tissue pigments: Lutein ([1]; 0 days after treatment): 23.6 mg/100 g fresh weight
- Blade tissue pigments: Phytoene ([1]; 0 days after treatment): 0.0 mg/100 g fresh weight
- Blade tissue pigments: Total Carotenoids ([1]; 0 days after treatment): 57.5 mg/100 g fresh weight
- Blade tissue pigments: Violaxanthin ([1]; 0 days after treatment): 6.9 mg/100 g fresh weight
- Blade tissue pigments: Zeaxanthin ([1]; 0 days after treatment): 3.2 mg/100 g fresh weight
- Blade tissue pigments: Beta-carotene ([1]; 3 days after treatment): 11.6 mg/100 g fresh weight
- Blade tissue pigments: Lutein ([1]; 3 days after treatment): 14.8 mg/100 g fresh weight
- Blade tissue pigments: Phytoene ([1]; 3 days after treatment): 37.5 mg/100 g fresh weight
- Blade tissue pigments: Total Carotenoids ([1]; 3 days after treatment): 42.9 mg/100 g fresh weight
- Blade tissue pigments: Violaxanthin ([1]; 3 days after treatment): 1.6 mg/100 g fresh weight
- Blade tissue pigments: Zeaxanthin ([1]; 3 days after treatment): 3.1 mg/100 g fresh weight
- Blade tissue pigments: Beta-carotene ([1]; 7 days after treatment): 7.4 mg/100 g fresh weight
- Blade tissue pigments: Lutein ([1]; 7 days after treatment): 14.1 mg/100 g fresh weight
- Blade tissue pigments: Phytoene ([1]; 7 days after treatment): 38.0 mg/100 g fresh weight
- Blade tissue pigments: Total Carotenoids ([1]; 7 days after treatment): 35.6 mg/100 g fresh weight
- Blade tissue pigments: Violaxanthin ([1]; 7 days after treatment): 1.6 mg/100 g fresh weight
- Blade tissue pigments: Zeaxanthin ([1]; 7 days after treatment): 3.3 mg/100 g fresh weight
- Blade tissue pigments: Beta-carotene ([1]; 14 days after treatment): 7.6 mg/100 g fresh weight
- Blade tissue pigments: Lutein ([1]; 14 days after treatment): 16.4 mg/100 g fresh weight
- Blade tissue pigments: Phytoene ([1]; 14 days after treatment): 11.7 mg/100 g fresh weight
- Blade tissue pigments: Total Carotenoids ([1]; 14 days after treatment): 47.2 mg/100 g fresh weight
- Blade tissue pigments: Violaxanthin ([1]; 14 days after treatment): 3.5 mg/100 g fresh weight
- Blade tissue pigments: Zeaxanthin ([1]; 14 days after treatment): 3.8 mg/100 g fresh weight
- Blade tissue pigments: Beta-carotene ([1]; 21 days after treatment): 11.4 mg/100 g fresh weight
- Blade tissue pigments: Lutein ([1]; 21 days after treatment): 21.2 mg/100 g fresh weight
- Blade tissue pigments: Phytoene ([1]; 21 days after treatment): 0.0 mg/100 g fresh weight
- Blade tissue pigments: Total Carotenoids ([1]; 21 days after treatment): 60.1 mg/100 g fresh weight
- Blade tissue pigments: Violaxanthin ([1]; 21 days after treatment): 4.0 mg/100 g fresh weight
- Blade tissue pigments: Zeaxanthin ([1]; 21 days after treatment): 4.7 mg/100 g fresh weight
- Blade tissue pigments: Beta-carotene ([1]; 28 days after treatment): 18.9 mg/100 g fresh weight
- Blade tissue pigments: Lutein ([1]; 28 days after treatment): 32.1 mg/100 g fresh weight
- Blade tissue pigments: Phytoene ([1]; 28 days after treatment): 0.0 mg/100 g fresh weight
- Blade tissue pigments: Total Carotenoids ([1]; 28 days after treatment): 77.2 mg/100 g fresh weight
- Blade tissue pigments: Violaxanthin ([1]; 28 days after treatment): 2.8 mg/100 g fresh weight
- Blade tissue pigments: Zeaxanthin ([1]; 28 days after treatment): 5.7 mg/100 g fresh weight
- Blade tissue pigments: Beta-carotene ([1]; 35 days after treatment): 21.2 mg/100 g fresh weight
- Blade tissue pigments: Lutein ([1]; 35 days after treatment): 37.1 mg/100 g fresh weight
- Blade tissue pigments: Phytoene ([1]; 35 days after treatment): 0.0 mg/100 g fresh weight
- Blade tissue pigments: Total Carotenoids ([1]; 35 days after treatment): 92.7 mg/100 g fresh weight
- Blade tissue pigments: Violaxanthin ([1]; 35 days after treatment): 6.8 mg/100 g fresh weight
- Blade tissue pigments: Zeaxanthin ([1]; 35 days after treatment): 6.4 mg/100 g fresh weight
- pigments in treated plants ([1]; 0.28 kg/ha postemergence, after initial decrease with tissue whitening): most recovered to untreated levels by 21 DAT
- lutein, β-carotene, and zeaxanthin versus untreated control plants ([1]; 0.28 kg/ha postemergence, at 35 DAT): accumulated to levels exceeding untreated control plants
- phytoene detection ([1]; 0.28 kg/ha postemergence, sampled 0 to 35 DAT): only detected in mesotrione treated plants at 3, 7, and 14 DAT
- visual tissue whitening, maximum ([2]; by 14 DAT): 38%
- recovery of discolored tissue ([2]; by 21 DAT): re-greening of discolored tissue was observed
- Acid DF [3]: 10 % of check
- Alanine [3]: 4 % of check
- Amino Acid [3]: 6 % of check
- Aspartic ac [3]: 7 % of check
- Cysteine [3]: 6 % of check
- Glutamic ac [3]: 6 % of check
- Glycine [3]: 4 % of check
- Isoleucine [3]: 6 % of check
- Leucine [3]: 6 % of check
- Lysine [3]: 12 % of check
- Methionine [3]: 2 % of check
- Neutral DF [3]: 13 % of check
- Proline [3]: 9 % of check
- Protein [3]: 7 % of check
- Threonine [3]: 16 % of check
- Valine [3]: 7 % of check
- calcium [3]: 0 % of check
- copper [3]: 0 % of check
- iron [3]: 21 % of check
- magnesium [3]: 20 % of check
- manganese [3]: 25 % of check
- mon fattyac [3]: 9 % of check
- phosphorous [3]: 12 % of check
- polyfattyac [3]: 12 % of check
- potassium [3]: 12 % of check
- sat fattyac [3]: 7 % of check
- sodium [3]: 21 % of check
- tot fattyac [3]: 11 % of check
- zinc [3]: 16 % of check
- Leaf Tissue Visual Bleaching (%) ([4]; ‘Incredible’, 7 DAT, EPOST): 16%
- Leaf Tissue Visual Bleaching (%) ([4]; ‘Incredible’, 7 DAT, LPOST): 11%
- Leaf Tissue Visual Bleaching (%) ([4]; ‘Incredible’, 14 DAT, EPOST): 9%
- Leaf Tissue Visual Bleaching (%) ([4]; ‘Incredible’, 14 DAT, LPOST): 9%
- Leaf Tissue Visual Bleaching (%) ([4]; ‘Incredible’, 21 DAT, EPOST): 8%
- Leaf Tissue Visual Bleaching (%) ([4]; ‘Incredible’, 21 DAT, LPOST): 1%
- Leaf Tissue Visual Bleaching (%) ([4]; ‘Merit’, 7 DAT, EPOST): 61%
- Leaf Tissue Visual Bleaching (%) ([4]; ‘Merit’, 7 DAT, LPOST): 34%
- Leaf Tissue Visual Bleaching (%) ([4]; ‘Merit’, 14 DAT, EPOST): 53%
- Leaf Tissue Visual Bleaching (%) ([4]; ‘Merit’, 14 DAT, LPOST): 29%
- Leaf Tissue Visual Bleaching (%) ([4]; ‘Merit’, 21 DAT, EPOST): 44%
- Leaf Tissue Visual Bleaching (%) ([4]; ‘Merit’, 21 DAT, LPOST): 9%
